In the NIST ThermoML archive (doi:10.1016/j.jct.2015.08.031):
“And” between values parts separate entries of the source, which are not always exact repeats. Equal entries are not always repeated.

Assay: molar heat capacity at constant pressure
Conditions: 101.33 kPa, Crystal, relaxation calorimetry

O[C@H]1[C@H](O)[C@H](O)OC[C@H]1O [β-D-arabinopyranose]
Conditions	molar heat capacity at constant pressure
0.5 K	0.0007532 J/K/mol
1 K	0.00191 J/K/mol
1.5 K	0.0039 J/K/mol
1.93 K	0.00664 J/K/mol
2 K	0.007206 J/K/mol
2.03 K	0.00744 J/K/mol
2.14 K	0.00853 J/K/mol
2.26 K	0.00959 J/K/mol
2.38 K	0.01108 J/K/mol
2.5 K	0.01239 J/K/mol
2.51 K	0.01247 J/K/mol
2.64 K	0.01457 J/K/mol
2.78 K	0.01653 J/K/mol
2.94 K	0.01919 J/K/mol
3 K	0.02013 J/K/mol
3.1 K	0.02195 J/K/mol
3.27 K	0.02605 J/K/mol
3.43 K	0.02956 J/K/mol
3.5 K	0.03122 J/K/mol
3.63 K	0.03481 J/K/mol
3.81 K	0.03999 J/K/mol
4 K	0.04664 J/K/mol
4.03 K	0.04762 J/K/mol
4.23 K	0.05477 J/K/mol
4.47 K	0.06546 J/K/mol
4.5 K	0.06755 J/K/mol
4.7 K	0.07779 J/K/mol
4.96 K	0.09273 J/K/mol
5 K	0.09528 J/K/mol
5.22 K	0.109 J/K/mol
5.5 K	0.1311 J/K/mol and 0.1314 J/K/mol
5.79 K	0.157 J/K/mol
6 K	0.1776 J/K/mol
6.1 K	0.19 J/K/mol
6.42 K	0.2256 J/K/mol
6.5 K	0.2359 J/K/mol
6.77 K	0.2719 J/K/mol
7 K	0.308 J/K/mol
7.12 K	0.328 J/K/mol
7.5 K	0.396 J/K/mol
7.51 K	0.3961 J/K/mol
7.9 K	0.4794 J/K/mol
8 K	0.5015 J/K/mol
8.33 K	0.5808 J/K/mol
8.5 K	0.6256 J/K/mol
8.76 K	0.6949 J/K/mol
9 K	0.7669 J/K/mol
9.24 K	0.8445 J/K/mol
9.5 K	0.9266 J/K/mol
9.72 K	1.004 J/K/mol
10 K	1.105 J/K/mol
10.23 K	1.191 J/K/mol
10.77 K	1.405 J/K/mol
11 K	1.517 J/K/mol
11.32 K	1.667 J/K/mol
11.92 K	1.965 J/K/mol
12 K	2 J/K/mol
12.56 K	2.311 J/K/mol
13 K	2.549 J/K/mol
13.23 K	2.685 J/K/mol
13.94 K	3.128 J/K/mol
14 K	3.158 J/K/mol
14.68 K	3.61 J/K/mol
15 K	3.821 J/K/mol
15.46 K	4.149 J/K/mol
16 K	4.53 J/K/mol
16.31 K	4.747 J/K/mol
17 K	5.279 J/K/mol
17.15 K	5.4 J/K/mol
18 K	6.059 J/K/mol
18.08 K	6.128 J/K/mol
19 K	6.866 J/K/mol
19.05 K	6.89 J/K/mol
20 K	7.693 J/K/mol
20.08 K	7.769 J/K/mol
21.14 K	8.663 J/K/mol
22.3 K	9.532 J/K/mol
23.47 K	10.62 J/K/mol
24.74 K	11.68 J/K/mol
25 K	11.98 J/K/mol
26.04 K	12.89 J/K/mol
27.46 K	14.03 J/K/mol
28.89 K	15.45 J/K/mol
30 K	16.33 J/K/mol
30.43 K	16.8 J/K/mol
32.08 K	18.29 J/K/mol
33.81 K	19.73 J/K/mol
35 K	20.68 J/K/mol
35.6 K	21.31 J/K/mol
37.52 K	22.92 J/K/mol
39.51 K	24.55 J/K/mol
40 K	25.02 J/K/mol
41.64 K	26.31 J/K/mol
43.83 K	28.17 J/K/mol
45 K	29.23 J/K/mol
46.19 K	30 J/K/mol
48.63 K	31.87 J/K/mol
50 K	33.14 J/K/mol
51.26 K	34.52 J/K/mol
53.96 K	35.9 J/K/mol
55 K	36.8 J/K/mol
56.88 K	38.09 J/K/mol
59.89 K	40.36 J/K/mol
60 K	40.35 J/K/mol
63.13 K	42.59 J/K/mol
65 K	43.88 J/K/mol
66.46 K	45.03 J/K/mol
70 K	47.36 J/K/mol
70.07 K	47.59 J/K/mol
73.76 K	50.07 J/K/mol
75 K	50.8 J/K/mol
77.78 K	52.92 J/K/mol
80 K	54.2 J/K/mol
81.9 K	55.02 J/K/mol
85 K	57.56 J/K/mol
86.34 K	58.01 J/K/mol
90 K	60.88 J/K/mol
90.84 K	61.56 J/K/mol
95 K	64.18 J/K/mol
95.82 K	64.72 J/K/mol
100 K	67.44 J/K/mol
100.82 K	67.63 J/K/mol
105.87 K	71.22 J/K/mol
110 K	73.87 J/K/mol
110.95 K	74.61 J/K/mol
116.03 K	77.25 J/K/mol
120 K	80.2 J/K/mol
121.05 K	81.12 J/K/mol
126.07 K	84.2 J/K/mol
130 K	86.45 J/K/mol
131.11 K	87.48 J/K/mol
136.18 K	90.66 J/K/mol
140 K	92.63 J/K/mol
141.2 K	93.47 J/K/mol
146.26 K	96.4 J/K/mol
150 K	98.75 J/K/mol
151.33 K	99.46 J/K/mol
156.34 K	102.71 J/K/mol
160 K	104.83 J/K/mol
161.42 K	105.84 J/K/mol
166.44 K	108.82 J/K/mol
170 K	110.86 J/K/mol
171.52 K	111.71 J/K/mol
176.58 K	114.66 J/K/mol
180 K	116.86 J/K/mol
181.62 K	117.85 J/K/mol
186.66 K	121.01 J/K/mol
190 K	122.82 J/K/mol
191.69 K	123.97 J/K/mol
196.75 K	126.57 J/K/mol
200 K	128.77 J/K/mol
201.79 K	129.39 J/K/mol
206.8 K	132.11 J/K/mol
210 K	134.69 J/K/mol
211.88 K	135.86 J/K/mol
216.86 K	138.45 J/K/mol
220 K	140.59 J/K/mol
221.99 K	141.54 J/K/mol
226.98 K	144.9 J/K/mol
230 K	146.48 J/K/mol
232.03 K	147.66 J/K/mol
237.15 K	150.47 J/K/mol
240 K	152.35 J/K/mol
242.11 K	153.65 J/K/mol
247.24 K	156.9 J/K/mol
250 K	158.21 J/K/mol
252.28 K	159.78 J/K/mol
257.34 K	162.75 J/K/mol
260 K	164.06 J/K/mol
262.36 K	165.45 J/K/mol
267.38 K	168.46 J/K/mol
270 K	169.9 J/K/mol
272.39 K	171.4 J/K/mol
273.15 K	171.74 J/K/mol
277.53 K	174.86 J/K/mol
280 K	175.73 J/K/mol
282.55 K	177.62 J/K/mol
287.61 K	180.21 J/K/mol
290 K	181.55 J/K/mol
292.62 K	182.92 J/K/mol
297.64 K	185.3 J/K/mol
298.15 K	186.29 J/K/mol
300 K	187.36 J/K/mol
302.65 K	188.73 J/K/mol
